# Results from PubChem BioAssay AID2060616 (Molecular Pharmacology Branch, DTP, NCI, 2025).
# Where “and” joins values, the source holds several entries; their conditions need not be identical. Equal entries are not always repeated.
# Test system: 377384-186-R-J1-PDC complex spheroid viability
# Assay: Anticancer human tumor 377384-186-R-J1-PDC patient-derived pancreatic carcinoma cell line growth inhibition [CLK]
# Details: for viability, T/C: stronger effect = lower value
# Excerpt: A high-throughput screen of multi-cell type tumor spheroids was designed to identify active combinations of […] and targeted small molecules. Complex spheroids include a stromal component modeled by human endothelial cells (HUVEC) and fibroblasts modeled by human mesenchymal stem cells (MSCs). The concentration ranges selected for each drug and investigational agent were based upon clinically achievable concentrations if the clinical Cmax of the agent was known.
# Compounds. The drugs and investigational agents: cirtuvivint (SM08502; NSC835563), CC-671 (NSC850746), vemurafenib (NSC761431), tapotoclax (NSC804041), sotorasib (NSC818433), adagrasib (NSC831453), MRTX-1133 (NSC836407), BAY2416964 (NSC825713), copanlisib (NSC816437), inavolisib (NSC800729), abemaciclib (NSC768073), osimertinib (NSC779217), entinostat (NSC756642), eltanexor (KPT-8602, NSC794443), venetoclax (NSC766270), ceralasertib (NSC777638), bortezomib (NSC756655), olaparib (NSC753686), talazoparib (NSC767125), alisertib (NSC759677), peposertib (NSC802822), gemcitabine (NSC613327), 5-fluorouracil (NSC19893), SN-38 (NSC673596), oxaliplatin (NSC266046), paclitaxel (NSC125973), and doxorubicin (NSC123127), were obtained from the National Cancer Institute (NCI) Developmental Therapeutics Program Chemical Repository. The FDA-approved anticancer drug set is available from the Developmental Therapeutics Program at https://dtp.cancer.gov/organization/dscb/obtaining/available plates.htm. […] The stock solutions were prepared in dimethyl sulfoxide (DMSO, Sigma-Aldrich, St. Louis, MO, cat. D2650), except for the platinum complexes which were prepared in saline (Quality Biological, Gaithersburg, MD, cat. 114-055-101), at 800-fold the tested concentration and stored at -70 degrees C prior to their use. All drugs and investigational agents were tested over a range starting from a high concentration at or near the clinical Cmax and decreasing in half-log increments. If the clinical Cmax for an agent had not been determined, the highest concentration tested was 10 microM.
# Cell Culture. All cells were maintained in an incubator at 37 degrees C and 5% CO2 with 95% humidity. The PDC lines were cultured according to standard operating procedures established by the NCI PDMR. Briefly, all PDCs were thawed and cultured in Matrigel-coated flasks prepared with a working solution of 1X Ham's F-12 nutrient mix, without supplementation (Invitrogen, Waltham, MA, cat. 11765054), 100 U/mL penicillin-streptomycin (Invitrogen, cat. 15140122), and 2.5% Matrigel (Corning Inc., Corning, NY, cat. 354248) for the first three passages. The 947758-054-R-J2-PDC line was cultured in 6B/Colon 1A media, which includes advanced DMEM/F-12 (Thermo Fisher Scientific, cat. 12634028), 10 mM HEPES (Thermo Fisher Scientific, cat. 15630080), 1X GlutaMAX supplement (Thermo Fisher Scientific, cat. 35050061), 0.1 mg/mL primocin (InvivoGen, cat. ant-pm-2), 10% defined fetal bovine serum, heat inactivated (HyClone Laboratories Inc., cat. SH30070.03HI), 1.25 mM N-Acetyl-L-cysteine (Sigma-Aldrich, cat. A9165), 10 mM nicotinamide (Sigma-Aldrich, cat. N0636), 1X B-27 supplement (Thermo Fisher Scientific, cat. 17504044), 1X N-2 supplement (Thermo Fisher Scientific, cat. 17502048), and 10 microM Y-27632 dihydrochloride (Tocris Bioscience, cat. 1254). The 876862-298-R-J1-PDC was cultured in 6E media, which includes all 6B/Colon 1A media components plus 50% L-WRN conditioned media (ATCC, cat. CRL-3276), 50 ng/mL recombinant human EGF recombinant protein (hEGF; Thermo Fisher Scientific, cat. PHG0311), 10 ng/mL recombinant human fibroblast growth factor 10 (hGFG-10; PeproTech, cat. 100-26), 1 ng/mL recombinant human fibroblast growth factor 2 (hFGF-2; PeproTech, cat. 100-18B), and 1 µM prostaglandin E2 (PGE2; Tocris, cat. 2296). The 227483-062-R1-J1-PDC line was cultured in Panc media, containing all 6E components except hFGF-2, with the addition of 500 nM SB-431542 (Selleckchem, cat. S1067) and 10 nM gastrin (Tocris, cat. 3006). […]
# 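Note: spheroids exposed to agents for 7 days before reading.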
# 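Throughout, for viability, T/C: luminescence signal used as a stand-in for viable cells.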
compound,measurement,setting,value
CC(=O)O[C@H]1C(=O)[C@@]2(C)[C@H]([C@H](OC(=O)c3ccccc3)[C@]3(O)C[C@H](OC(=O)[C@H](O)[C@@H](NC(=O)c4ccccc4)c4ccccc4)C(C)=C1C3(C)C)[C@]1(OC(C)=O)CO[C@@H]1C[C@@H]2O,"viability, T/C",compound 0.0316 µM,7.92% and 6.8%
same,"viability, T/C",compound 0.1 µM,9.5% and 7.41%
same,"viability, T/C",compound 0.316 µM,10.5% and 9.32%
same,"viability, T/C",compound 1 µM,8.91% and 8.31%
same,"viability, T/C",compound 3.16 µM,10.3% and 8.38%
same,"viability, T/C",compound 10 µM,14.3% and 11.1%
same,IC50,curve of compound,< 0.0316 µM
COc1ccc([C@@H](O)c2cc(-c3ncnc4cc(N5CCOCC5)ccc34)c(F)cc2Cl)nn1,"viability, T/C",compound 0.0316 µM,88.4% and 91.3%
same,"viability, T/C",compound 0.1 µM,92.5% and 94.2%
same,"viability, T/C",compound 0.316 µM,73% and 78.6%
same,"viability, T/C",compound 1 µM,66.6% and 61.9%
same,"viability, T/C",compound 3.16 µM,59.3% and 44.2%
same,"viability, T/C",compound 10 µM,35.7% and 31%
same,IC50,curve of compound,4.38 µM and 2.1 µM
COc1cccc2c1C(=O)c1c(O)c3c(c(O)c1C2=O)CC(O)(C(=O)CO)CC3OC1CC(N)C(O)C(C)O1 (stereo not drawn),"viability, T/C",compound 0.0316 µM,12.5% and 9.59%
same,"viability, T/C",compound 0.1 µM,7.59% and 5.12%
same,"viability, T/C",compound 0.316 µM,1.88% and 1.98%
same,"viability, T/C",compound 1 µM,0.76% and 0.47%
same,"viability, T/C",compound 3.16 µM,3.8% and 3.34%
same,"viability, T/C",compound 10 µM,8.38% and 5.34%
same,IC50,curve of compound,< 0.0316 µM
C=CC(=O)N1CCN(c2nc(=O)n(-c3c(C)ccnc3C(C)C)c3nc(-c4c(O)cccc4F)c(F)cc23)C(C)C1 (stereo not drawn) + CN1CCN(c2cc(C(=O)Nc3cc4cc(-c5cnn(C)c5)ccc4cn3)ccn2)CC1,IC50,"curve of first compound, second compound 0.0316 µM",> 10 µM
same,IC50,"curve of first compound, second compound 0.1 µM",> 10 µM
same,IC50,"curve of first compound, second compound 0.316 µM",< 0.0316 µM
same,IC50,"curve of first compound, second compound 1 µM",< 0.0316 µM
same,IC50,"curve of first compound, second compound 3.16 µM",< 0.0316 µM
same,IC50,"curve of first compound, second compound 10 µM",< 0.0316 µM
same,"viability, T/C","second compound 0.0316 µM, first compound 0.0316 µM",95.5%
same,"viability, T/C","second compound 0.0316 µM, first compound 0.1 µM",101%
same,"viability, T/C","second compound 0.0316 µM, first compound 0.316 µM",114%
same,"viability, T/C","second compound 0.0316 µM, first compound 1 µM",131%
same,"viability, T/C","second compound 0.0316 µM, first compound 3.16 µM",117%
same,"viability, T/C","second compound 0.0316 µM, first compound 10 µM",101%
same,"viability, T/C","second compound 0.1 µM, first compound 0.0316 µM",104%
same,"viability, T/C","second compound 0.1 µM, first compound 0.1 µM",92.8%
same,"viability, T/C","second compound 0.1 µM, first compound 0.316 µM",110%
same,"viability, T/C","second compound 0.1 µM, first compound 1 µM",112%
same,"viability, T/C","second compound 0.1 µM, first compound 3.16 µM",116%
same,"viability, T/C","second compound 0.1 µM, first compound 10 µM",88.3%
same,"viability, T/C","second compound 0.316 µM, first compound 0.0316 µM",27.9%
same,"viability, T/C","second compound 0.316 µM, first compound 0.1 µM",35.2%
same,"viability, T/C","second compound 0.316 µM, first compound 0.316 µM",38.1%
same,"viability, T/C","second compound 0.316 µM, first compound 1 µM",41.4%
same,"viability, T/C","second compound 0.316 µM, first compound 3.16 µM",37.6%
same,"viability, T/C","second compound 0.316 µM, first compound 10 µM",24.7%
same,"viability, T/C","second compound 1 µM, first compound 0.0316 µM",1.29%
same,"viability, T/C","second compound 1 µM, first compound 0.1 µM",1.17%
same,"viability, T/C","second compound 1 µM, first compound 0.316 µM",1.31%
same,"viability, T/C","second compound 1 µM, first compound 1 µM",1.24%
same,"viability, T/C","second compound 1 µM, first compound 3.16 µM",2.37%
same,"viability, T/C","second compound 1 µM, first compound 10 µM",2.29%
same,"viability, T/C","second compound 3.16 µM, first compound 0.0316 µM",0.53%
same,"viability, T/C","second compound 3.16 µM, first compound 0.1 µM",0.78%
same,"viability, T/C","second compound 3.16 µM, first compound 0.316 µM",0.7%
same,"viability, T/C","second compound 3.16 µM, first compound 1 µM",0.78%
same,"viability, T/C","second compound 3.16 µM, first compound 3.16 µM",1.84%
same,"viability, T/C","second compound 3.16 µM, first compound 10 µM",3.69%
same,"viability, T/C","second compound 10 µM, first compound 0.0316 µM",0.44%
same,"viability, T/C","second compound 10 µM, first compound 0.1 µM",0.59%
same,"viability, T/C","second compound 10 µM, first compound 0.316 µM",1.65%
same,"viability, T/C","second compound 10 µM, first compound 1 µM",0.86%
same,"viability, T/C","second compound 10 µM, first compound 3.16 µM",1.07%
same,"viability, T/C","second compound 10 µM, first compound 10 µM",0.98%
